We go through seven compounds from patent publication US10800791B2, “Triazole ACC inhibitors and uses thereof” (Gilead Apollo, LLC, priority 2015, dated 2020).

≈ marks a conversion by molar mass, not a printed value. Like-named read-outs stand apart in the source and are kept apart here.

One assay has as its system C. krusei. The experiment in a line: Antifungal Activity Assay (broth microtiter MIC), C. krusei. As to conditions: Pichia kudriavzevii, ATCC6258, 48 h, ATCC 6258, 3 replicates, MIC recorded at 48 h, read-out: MIC, C. krusei ATCC 6258. Format: cell-based, Candida krusei. As to the method: (§1) Compounds of the present invention were evaluated in an Antifungal Activity Assay. An exemplary procedure for the assay, which measures the susceptibility of various Candida species to antifungal compounds, follows. Compounds to be tested (including fluconazole and amphotericin B) were dissolved in DMSO to obtain a solution having a concentration of 1 mg/mL. These stock solutions were sterile filtered using a 0.22 um nylon syringe filter, then diluted in sterile water to achieve a final concentration of 128 μg/mL.
(§2) All species were grown from frozen stock by directly plating on to freshly prepared Sabouraud Dextrose agar (BD, Difco) and incubated overnight in ambient air at 35° C. for 24 h. A direct suspension was prepared in RPMI 1640+MOPS (Lonza, Biowhittaker) by taking individual colonies from the overnight cultures using sterile swabs soaked in sterile saline. The concentration of the suspension was determined using pre-determined standard curves. These suspensions were then diluted down to 5×10^3 CFU/mL to achieve a final concentration of 2.5×10^3 CFU/mL once added to the microtiter plate as per CLSI guidelines (M27-A3, Vol. 28 No. 14).
(§3) Broth microtiter MIC challenge plates were prepared following CLSI guidelines (M27-A3, Vol. 28 No. 14). The original CLSI guidelines focused on reading Candida MICs after 48 h of incubation. As reading after only 24 h offers a clear advantage of patient care, QC limits are being established for all drugs at 24 h. That being said there are no known interpretive breakpoints for amphotericin B at 24 h and the current fluconazole interpretive breakpoints are based on a 48 h reading. The MICs for the test compounds were recorded at 48 h. All MIC determinations were achieved by visually comparing the growth found in the antibiotic challenged wells to that of the growth control.

The target in a further assay is fungal (fACC2) (UniProt Q00955). As to conditions: read-out: fACC2 (in vitro ACC2 Inhibition Assay, IC50), ADP-Glo, 5 nM ACC2, 20 μM ATP, 20 μM acetyl-CoA. A general note: ADP-Glo first removes unused ATP, then detects ADP through luciferase.
fungal (fACC2), sequence (Q00955 whole entry): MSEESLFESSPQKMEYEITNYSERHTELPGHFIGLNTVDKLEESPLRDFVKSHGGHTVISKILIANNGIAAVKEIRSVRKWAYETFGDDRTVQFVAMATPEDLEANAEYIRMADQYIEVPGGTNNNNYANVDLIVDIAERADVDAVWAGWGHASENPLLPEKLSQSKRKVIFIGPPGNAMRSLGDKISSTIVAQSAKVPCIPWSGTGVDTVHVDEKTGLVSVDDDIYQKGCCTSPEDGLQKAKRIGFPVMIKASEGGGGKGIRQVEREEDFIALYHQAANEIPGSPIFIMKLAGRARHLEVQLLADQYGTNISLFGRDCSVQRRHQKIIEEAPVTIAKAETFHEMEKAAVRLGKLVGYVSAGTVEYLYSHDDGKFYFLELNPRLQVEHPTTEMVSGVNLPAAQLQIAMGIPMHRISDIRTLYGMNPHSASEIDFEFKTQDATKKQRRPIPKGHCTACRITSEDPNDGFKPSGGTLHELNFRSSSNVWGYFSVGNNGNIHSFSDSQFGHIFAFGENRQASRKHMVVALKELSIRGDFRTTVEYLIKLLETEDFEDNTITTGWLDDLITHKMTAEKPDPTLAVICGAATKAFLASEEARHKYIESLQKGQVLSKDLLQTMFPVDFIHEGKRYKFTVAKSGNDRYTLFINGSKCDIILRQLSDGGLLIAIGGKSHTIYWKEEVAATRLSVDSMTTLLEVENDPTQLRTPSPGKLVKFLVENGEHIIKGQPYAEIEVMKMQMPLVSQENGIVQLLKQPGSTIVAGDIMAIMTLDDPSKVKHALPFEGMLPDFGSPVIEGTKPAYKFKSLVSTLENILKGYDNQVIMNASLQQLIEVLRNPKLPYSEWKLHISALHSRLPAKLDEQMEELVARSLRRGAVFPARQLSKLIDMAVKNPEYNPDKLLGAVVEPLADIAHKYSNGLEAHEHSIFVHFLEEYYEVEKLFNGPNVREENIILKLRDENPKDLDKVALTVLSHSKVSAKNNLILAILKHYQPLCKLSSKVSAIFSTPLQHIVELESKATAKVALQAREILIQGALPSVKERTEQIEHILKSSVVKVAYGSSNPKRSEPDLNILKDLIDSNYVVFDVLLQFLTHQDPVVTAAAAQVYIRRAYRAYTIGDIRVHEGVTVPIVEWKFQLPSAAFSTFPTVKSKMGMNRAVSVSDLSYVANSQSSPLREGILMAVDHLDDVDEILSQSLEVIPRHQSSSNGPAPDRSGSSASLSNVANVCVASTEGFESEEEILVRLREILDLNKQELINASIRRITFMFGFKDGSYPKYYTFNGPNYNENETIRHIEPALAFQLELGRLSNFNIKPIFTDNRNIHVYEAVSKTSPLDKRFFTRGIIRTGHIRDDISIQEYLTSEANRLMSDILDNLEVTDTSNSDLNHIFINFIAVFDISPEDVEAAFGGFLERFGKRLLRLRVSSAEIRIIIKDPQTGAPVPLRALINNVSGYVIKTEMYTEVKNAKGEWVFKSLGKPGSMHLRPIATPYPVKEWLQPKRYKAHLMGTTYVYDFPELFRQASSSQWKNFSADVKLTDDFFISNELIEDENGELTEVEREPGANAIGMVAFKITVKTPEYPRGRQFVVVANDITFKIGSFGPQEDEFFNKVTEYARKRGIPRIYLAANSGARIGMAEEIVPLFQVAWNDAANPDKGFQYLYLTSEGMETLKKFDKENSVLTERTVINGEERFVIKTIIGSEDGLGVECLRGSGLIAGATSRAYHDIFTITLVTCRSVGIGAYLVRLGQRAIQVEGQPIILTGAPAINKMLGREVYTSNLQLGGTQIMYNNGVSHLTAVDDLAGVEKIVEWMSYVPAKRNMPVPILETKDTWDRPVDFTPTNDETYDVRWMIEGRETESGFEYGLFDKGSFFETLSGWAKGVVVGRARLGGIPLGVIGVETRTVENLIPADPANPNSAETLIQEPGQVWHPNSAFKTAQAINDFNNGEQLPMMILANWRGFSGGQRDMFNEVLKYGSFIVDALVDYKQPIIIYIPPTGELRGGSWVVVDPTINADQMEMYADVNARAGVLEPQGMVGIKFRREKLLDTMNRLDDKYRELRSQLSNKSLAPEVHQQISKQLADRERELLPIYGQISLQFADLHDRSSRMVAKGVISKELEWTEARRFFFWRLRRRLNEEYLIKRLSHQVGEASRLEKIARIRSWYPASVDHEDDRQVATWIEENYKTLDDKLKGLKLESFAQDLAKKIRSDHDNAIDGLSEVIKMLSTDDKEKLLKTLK
Another assay deals with C. parapsilosis. The assay can be described thus: Antifungal Activity Assay (broth microtiter MIC), C. parapsilosis. It counts as cell-based, Candida parapsilosis. As to conditions: Lodderomyces parapsilosis, ATCC22019, 48 h, ATCC 22019, 3 replicates, MIC recorded at 48 h, read-out: MIC, C. parapsilosis ATCC 22019. As to the method: as §1, §2, §3
A further assay has as its system C. albicans. The experiment in a line: Antifungal Activity Assay (broth microtiter MIC), C. albicans. As to conditions: Candida albicans, ATCC90028, 48 h, ATCC 90028, 3 replicates, MIC recorded at 48 h, read-out: MIC, C. albicans ATCC 90028. Format: cell-based, Candida albicans. On the procedure: as §1, §2, §3
A further assay concerns the target human (hACC2) (Homo sapiens, UniProt O00763). The assay can be described thus: In vitro ACC inhibition assay (ADP-Glo), hACC2. It counts as biochemical. As to conditions: 5 nM ACC2, 20 μM ATP, 20 μM acetyl-CoA. As to the method:
The detailed procedure is as follows. […] 10 μL ADP glo reagent was added. […] 20 μL kinase detection reagent was added.

human (hACC2), sequence (O00763 whole entry): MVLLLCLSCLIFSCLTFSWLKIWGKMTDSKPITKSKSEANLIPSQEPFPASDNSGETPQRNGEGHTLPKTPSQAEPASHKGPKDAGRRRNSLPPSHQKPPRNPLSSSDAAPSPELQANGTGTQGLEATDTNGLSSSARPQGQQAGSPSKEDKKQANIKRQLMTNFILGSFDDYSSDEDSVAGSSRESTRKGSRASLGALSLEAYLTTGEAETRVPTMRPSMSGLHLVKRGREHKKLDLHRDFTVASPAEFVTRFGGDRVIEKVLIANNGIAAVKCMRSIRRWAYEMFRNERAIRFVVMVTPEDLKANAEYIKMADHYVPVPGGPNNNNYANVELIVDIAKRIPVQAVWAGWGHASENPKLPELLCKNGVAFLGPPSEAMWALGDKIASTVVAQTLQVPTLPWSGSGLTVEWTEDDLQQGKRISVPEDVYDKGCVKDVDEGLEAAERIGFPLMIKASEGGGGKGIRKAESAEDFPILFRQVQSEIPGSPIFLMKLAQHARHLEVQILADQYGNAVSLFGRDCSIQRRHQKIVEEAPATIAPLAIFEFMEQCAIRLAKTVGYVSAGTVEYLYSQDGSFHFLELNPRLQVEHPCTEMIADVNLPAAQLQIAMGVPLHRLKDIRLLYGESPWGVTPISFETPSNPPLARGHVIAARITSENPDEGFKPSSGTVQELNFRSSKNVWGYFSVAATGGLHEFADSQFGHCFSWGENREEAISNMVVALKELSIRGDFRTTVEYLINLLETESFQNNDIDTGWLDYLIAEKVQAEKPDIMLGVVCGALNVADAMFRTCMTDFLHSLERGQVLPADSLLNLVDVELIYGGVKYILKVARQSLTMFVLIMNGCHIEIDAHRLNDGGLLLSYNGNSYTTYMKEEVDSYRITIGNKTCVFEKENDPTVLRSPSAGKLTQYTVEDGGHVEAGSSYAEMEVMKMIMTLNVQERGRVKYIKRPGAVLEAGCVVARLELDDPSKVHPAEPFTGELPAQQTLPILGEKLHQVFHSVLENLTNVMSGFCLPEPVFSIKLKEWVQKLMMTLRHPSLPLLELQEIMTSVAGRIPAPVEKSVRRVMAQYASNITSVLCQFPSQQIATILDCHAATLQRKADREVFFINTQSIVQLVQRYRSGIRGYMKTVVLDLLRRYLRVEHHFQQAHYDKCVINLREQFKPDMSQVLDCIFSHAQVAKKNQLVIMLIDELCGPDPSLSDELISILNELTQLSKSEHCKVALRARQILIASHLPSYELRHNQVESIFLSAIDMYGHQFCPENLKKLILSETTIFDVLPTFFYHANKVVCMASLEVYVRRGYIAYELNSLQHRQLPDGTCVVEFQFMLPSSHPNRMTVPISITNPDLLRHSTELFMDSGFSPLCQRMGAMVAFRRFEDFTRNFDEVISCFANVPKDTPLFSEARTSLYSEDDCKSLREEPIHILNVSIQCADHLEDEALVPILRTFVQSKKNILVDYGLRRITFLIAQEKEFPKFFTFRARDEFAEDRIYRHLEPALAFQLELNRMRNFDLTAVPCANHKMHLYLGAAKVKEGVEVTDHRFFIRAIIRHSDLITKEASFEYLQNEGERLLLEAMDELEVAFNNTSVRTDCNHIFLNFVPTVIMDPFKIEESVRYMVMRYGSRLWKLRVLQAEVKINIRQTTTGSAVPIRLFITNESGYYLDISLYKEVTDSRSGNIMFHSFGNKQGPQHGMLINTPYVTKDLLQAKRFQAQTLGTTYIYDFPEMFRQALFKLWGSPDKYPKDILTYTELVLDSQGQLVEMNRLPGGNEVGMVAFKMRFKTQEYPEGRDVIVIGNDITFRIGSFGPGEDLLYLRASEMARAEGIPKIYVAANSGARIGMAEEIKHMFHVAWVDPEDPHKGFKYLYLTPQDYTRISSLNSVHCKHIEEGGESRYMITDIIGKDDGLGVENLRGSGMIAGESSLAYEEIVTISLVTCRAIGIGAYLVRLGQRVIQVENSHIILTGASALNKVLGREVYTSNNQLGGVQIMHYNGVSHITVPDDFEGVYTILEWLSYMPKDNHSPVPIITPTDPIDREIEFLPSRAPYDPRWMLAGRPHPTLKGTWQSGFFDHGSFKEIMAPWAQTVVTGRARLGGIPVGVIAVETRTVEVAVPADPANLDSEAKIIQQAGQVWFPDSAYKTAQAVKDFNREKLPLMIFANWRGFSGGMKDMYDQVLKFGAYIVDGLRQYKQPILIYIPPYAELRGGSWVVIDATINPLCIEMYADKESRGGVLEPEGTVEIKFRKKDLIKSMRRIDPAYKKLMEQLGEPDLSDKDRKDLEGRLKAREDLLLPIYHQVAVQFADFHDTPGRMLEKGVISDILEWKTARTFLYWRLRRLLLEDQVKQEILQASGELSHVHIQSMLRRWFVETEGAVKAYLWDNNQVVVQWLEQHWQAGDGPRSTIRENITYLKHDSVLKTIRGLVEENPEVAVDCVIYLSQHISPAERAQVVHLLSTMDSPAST

For `C=CCNC(=O)C(C)(C)n1c(=O)c2c(C)c(-n3nccn3)sc2n(C[C@H](OC(C)C)c2cc(F)ccc2OC)c1=O` [Compound I-120], the minimal inhibitory concentration (MIC) in the assay on C. krusei (Table 3a) was in the range of 0.25 to 1 µg/mL (≈ 0.428 to 1.71 µM); with C. krusei (Table 3b (additional results)) it was 0.25 to 1 µg/mL (≈ 0.428 to 1.71 µM); in the assay with C. parapsilosis (Table 3a), 0.25 to 1 µg/mL (≈ 0.428 to 1.71 µM); in the assay with C. parapsilosis (Table 3b (additional results)) it was 2.01 to 4 µg/mL (≈ 3.44 to 6.84 µM); in the assay on C. albicans (Table 3a), 0.25 to 1 µg/mL (≈ 0.428 to 1.71 µM); with C. albicans (Table 3b (additional results)) it was 1.01 to 2 µg/mL (≈ 1.73 to 3.42 µM). Further, the IC50 on fungal (fACC2) (Table 2a) is 1 to 5 nM; on fungal (fACC2) (Table 2b, additional results) it was 1 to 5 nM; against human (hACC2) (Table 2a), 5 to 10 nM; against human (hACC2) (Table 2b, additional results), 5 to 10 nM.
With `COc1ccc(F)cc1[C@H](Cn1c(=O)n(C(C)(C)C(=O)N2CC=CC2)c(=O)c2c(C)c(-n3nccn3)sc21)OCC(C)O` (stereo partly shown) [Compound I-121], the MIC is 0.25 to 1 µg/mL (≈ 0.408 to 1.63 µM) in the assay on C. krusei (Table 3a); above 4.01 µg/mL in the assay with C. krusei (Table 3b (additional results)); 1.1 to 2 µg/mL (≈ 1.8 to 3.26 µM) in the assay on C. parapsilosis (Table 3a); 2.01 to 4 µg/mL (≈ 3.28 to 6.53 µM) in the assay on C. parapsilosis (Table 3b (additional results)); 1.1 to 2 µg/mL (≈ 1.8 to 3.26 µM) in the assay with C. albicans (Table 3a); 1.01 to 2 µg/mL (≈ 1.65 to 3.26 µM) in the assay on C. albicans (Table 3b (additional results)). The IC50 lay in the range of 1 to 5 nM on fungal (fACC2) (Table 2a); 1 to 5 nM on fungal (fACC2) (Table 2b, additional results); 1 to 5 nM against human (hACC2) (Table 2a); 1 to 5 nM against human (hACC2) (Table 2b, additional results).
In the case of `COCCOc1ccc(F)cc1[C@H](Cn1c(=O)n(C(C)(C)C(=O)NC(C)C)c(=O)c2c(C)c(-n3nccn3)sc21)OCCOC` [Compound I-122], the MIC with C. krusei (Table 3a) lay within 0.25 to 1 µg/mL (≈ 0.387 to 1.55 µM); with C. krusei (Table 3b (additional results)), 1.01 to 2 µg/mL (≈ 1.56 to 3.09 µM); in the assay with C. parapsilosis (Table 3a) it was 1.1 to 2 µg/mL (≈ 1.7 to 3.09 µM); with C. parapsilosis (Table 3b (additional results)) it was 1.01 to 2 µg/mL (≈ 1.56 to 3.09 µM); in the assay on C. albicans (Table 3a), 2.1 to 4 µg/mL (≈ 3.25 to 6.18 µM); in the assay on C. albicans (Table 3b (additional results)) it was 2.01 to 4 µg/mL (≈ 3.11 to 6.18 µM). The IC50 on fungal (fACC2) (Table 2a) was in the range of 1 to 5 nM; at fungal (fACC2) (Table 2b, additional results), 1 to 5 nM; on human (hACC2) (Table 2a), 10 to 40 nM; against human (hACC2) (Table 2b, additional results) it was 10 to 40 nM.
As for `COc1ccc(F)cc1[C@H](Cn1c(=O)n(C(C)(C)C(N)=O)c(=O)c2c(C)c(-n3nccn3)sc21)OCCC(=O)C(F)(F)F` [Compound I-123], the MIC with C. krusei (Table 3a) is 1.1 to 2 µg/mL (≈ 1.76 to 3.19 µM); in the assay with C. krusei (Table 3b (additional results)) it was above 4.01 µg/mL; in the assay on C. parapsilosis (Table 3a), 2.1 to 4 µg/mL (≈ 3.35 to 6.38 µM); in the assay on C. parapsilosis (Table 3b (additional results)) it was above 4.01 µg/mL; in the assay on C. albicans (Table 3a), 2.1 to 4 µg/mL (≈ 3.35 to 6.38 µM); in the assay on C. albicans (Table 3b (additional results)) it was above 4.01 µg/mL. Besides, the IC50 lay within 1 to 5 nM at fungal (fACC2) (Table 2a); 1 to 5 nM on fungal (fACC2) (Table 2b, additional results); 10 to 40 nM against human (hACC2) (Table 2a); 10 to 40 nM against human (hACC2) (Table 2b, additional results).
Consider `CCc1ccc(F)cc1[C@H](Cn1c(=O)n(C(C)(C)C(=O)O)c(=O)c2c(C)c(-n3nccn3)sc21)OCCO` [Compound I-125], for which the MIC is 2.1 to 4 µg/mL (≈ 3.85 to 7.33 µM) with C. krusei (Table 3a); above 4.01 µg/mL in the assay on C. krusei (Table 3b (additional results)); 2.1 to 4 µg/mL (≈ 3.85 to 7.33 µM) with C. parapsilosis (Table 3a); above 4.01 µg/mL in the assay with C. parapsilosis (Table 3b (additional results)); 2.1 to 4 µg/mL (≈ 3.85 to 7.33 µM) in the assay with C. albicans (Table 3a); above 4.01 µg/mL in the assay with C. albicans (Table 3b (additional results)). In addition, the IC50 on fungal (fACC2) (Table 2a) fell in the range of 1 to 5 nM; on fungal (fACC2) (Table 2b, additional results), 0.3 to 1 nM; on human (hACC2) (Table 2a), 1 to 5 nM; on human (hACC2) (Table 2b, additional results) it was 1 to 5 nM.
Regarding `COCCO[C@@H](Cn1c(=O)n(C(C)(C)C(=O)OC(C)C)c(=O)c2c(C)c(-n3nccn3)sc21)c1cc(F)ccc1OC` [Compound I-127], the MIC in the assay on C. krusei (Table 3a) was 0.25 to 1 µg/mL (≈ 0.414 to 1.66 µM); in the assay on C. krusei (Table 3b (additional results)), 2.01 to 4 µg/mL (≈ 3.33 to 6.63 µM); in the assay with C. parapsilosis (Table 3a), 1.1 to 2 µg/mL (≈ 1.82 to 3.31 µM); in the assay on C. parapsilosis (Table 3b (additional results)), above 4.01 µg/mL; in the assay on C. albicans (Table 3a), 1.1 to 2 µg/mL (≈ 1.82 to 3.31 µM); in the assay with C. albicans (Table 3b (additional results)), 2.01 to 4 µg/mL (≈ 3.33 to 6.63 µM). For the same compound, the IC50 was 1 to 5 nM on fungal (fACC2) (Table 2a); 1 to 5 nM at fungal (fACC2) (Table 2b, additional results); 10 to 40 nM at human (hACC2) (Table 2a); 10 to 40 nM at human (hACC2) (Table 2b, additional results).
For the compound `COCCO[C@@H](Cn1c(=O)n(C(C)(C)C(=O)OC2CCC2)c(=O)c2c(C)c(-n3nccn3)sc21)c1cc(F)ccc1OC` [Compound I-128], the MIC in the assay on C. krusei (Table 3a) was 1.1 to 2 µg/mL (≈ 1.79 to 3.25 µM); in the assay with C. krusei (Table 3b (additional results)) it was 2.01 to 4 µg/mL (≈ 3.26 to 6.5 µM); in the assay with C. parapsilosis (Table 3a) it was 2.1 to 4 µg/mL (≈ 3.41 to 6.5 µM); in the assay with C. parapsilosis (Table 3b (additional results)), 2.01 to 4 µg/mL (≈ 3.26 to 6.5 µM); in the assay with C. albicans (Table 3a), 2.1 to 4 µg/mL (≈ 3.41 to 6.5 µM); in the assay with C. albicans (Table 3b (additional results)), above 4.01 µg/mL. The IC50 on fungal (fACC2) (Table 2a) was 1 to 5 nM; on fungal (fACC2) (Table 2b, additional results), 1 to 5 nM; at human (hACC2) (Table 2a), 10 to 40 nM; against human (hACC2) (Table 2b, additional results), 10 to 40 nM.

As usually defined, the MIC is the lowest concentration found to suppress growth. What is called IC50 is the concentration that gives 50% inhibition.
